In PMC8406298, “Discovery of Fungus-Specific Targets and Inhibitors Using Chemical Phenotyping of Pathogenic Spore Germination” (mBio, 2021):

Columns and labels:
[1] = system: normal human dermal fibroblasts (NHDF) cells; assay: Fibroblast cytotoxicity (CellTiter-Glo); format: cell-based; details: 10 µM
Description: PrimaPure normal human dermal fibroblasts (NHDF) cells (Genlatis PH10605A) were cultured and passaged in fibroblast growth medium (Genlatis PM116500) according to the manufacturer’s protocol. NHDF cells (1 × 10^3 per well) were plated in a 384-well plate in cell culture medium. The cells were incubated with each compound of interest at 10 μM concentration for 72 h at 37°C and 5% CO2. Following treatment, CellTiter-Glo (Promega) reagent was used to assay ATP-dependent luminescence and thus provide a measure of cell viability. […] For cytotoxicity dose-response curves (Fig. 4C and Fig. 5C), compounds were titrated from 80 μM to 0.5 μM in duplicates.

[2] = system: Cryptococcus yeast (CHY3833 and CHY3836); assay: Yeast replication secondary screen (OD600); format: cell-based, Cryptococcus neoformans serotype D (deneoformans); details: 10 μM, 12 h at 30°C
Description: (ii) Yeast replication. CHY3833 and CHY3836 were each grown in YPD liquid overnight at 30°C to saturation and then resuspended in 0.5× YPD at an OD600 of 0.005. Strains were aliquoted into 384-well plates with inhibitors and grown for 12 h at 30°C at […] before OD600 readings were taken. Compounds that caused a >10% decrease in growth were considered yeast growth inhibitors.

SMILES: Cc1cc(C(=O)NCCn2nc(C(F)(F)F)c3c2CCCC3)c(C)o1 [compound 72718563]
- Cytotoxicity: Relative Cell Viability (% of Negative Control) [1]: 92.0 % of Negative Control
- Yeast Inhibition: % Inhibition [2]: 79.7%

SMILES: COc1ccc(CCNC(=O)c2cnn3c(-c4ccc(C)c(C)c4)ccnc23)cc1OC [compound 46074589]
- Cytotoxicity: Relative Cell Viability (% of Negative Control) [1]: 105.7 % of Negative Control
- Yeast Inhibition: % Inhibition [2]: -4.7%

SMILES: Cc1ccc(COC(=O)c2ccc(C3Nc4ccccc4S(=O)(=O)N3)cc2)cc1 (stereo not shown) [compound 44117349]
- Cytotoxicity: Relative Cell Viability (% of Negative Control) [1]: 106.4 % of Negative Control
- Yeast Inhibition: % Inhibition [2]: 15.4%

SMILES: Cc1nc(NCc2ccccc2)c2ccsc2n1 [compound 2238994]
- Cytotoxicity: Relative Cell Viability (% of Negative Control) [1]: 75.7 % of Negative Control
- Yeast Inhibition: % Inhibition [2]: 84.9%

SMILES: O=C(Nc1cccc(C(F)(F)F)c1)C1=Cc2ccccc2OC1 [compound 1475928]
- Cytotoxicity: Relative Cell Viability (% of Negative Control) [1]: 58.1 % of Negative Control
- Yeast Inhibition: % Inhibition [2]: 77.9%

SMILES: O=S(=O)(NCCN1CCN(c2ccc(Cl)cc2)CC1)c1ccc(Cl)s1 [compound 42268033]
- Cytotoxicity: Relative Cell Viability (% of Negative Control) [1]: 102.4 % of Negative Control
- Yeast Inhibition: % Inhibition [2]: 19.1%

SMILES: COc1ccc(CCNc2ncnc3scc(-c4cccs4)c23)cc1OC [compound 2008712]
- Cytotoxicity: Relative Cell Viability (% of Negative Control) [1]: 97.9 % of Negative Control
- Yeast Inhibition: % Inhibition [2]: 68.9%

SMILES: CN(C)/C=C/c1cc(=S)c2ccccc2s1 [compound 5991625]
- Cytotoxicity: Relative Cell Viability (% of Negative Control) [1]: 72.5 % of Negative Control
- Yeast Inhibition: % Inhibition [2]: 65.3%

SMILES: Cc1ccc(CN2C(=O)C=CC2=O)cc1 [compound 302279]
- Cytotoxicity: Relative Cell Viability (% of Negative Control) [1]: 3.1 % of Negative Control
- Yeast Inhibition: % Inhibition [2]: 101.5%

SMILES: Cc1ccc(NS(=O)(=O)N2CCCCCC2)cc1Cl [compound 8720355]
- Cytotoxicity: Relative Cell Viability (% of Negative Control) [1]: 71.9 % of Negative Control
- Yeast Inhibition: % Inhibition [2]: 45.8%

SMILES: N#CC(C#N)=NNc1cccc(Br)c1 [compound 4199189]
- Cytotoxicity: Relative Cell Viability (% of Negative Control) [1]: 31.1 % of Negative Control
- Yeast Inhibition: % Inhibition [2]: 101.2%

SMILES: O=C(Cc1ccc(F)cc1)N1CCN(c2nc(-c3ccsc3)cs2)CC1 [compound 71811049]
- Cytotoxicity: Relative Cell Viability (% of Negative Control) [1]: 99.2 % of Negative Control
- Yeast Inhibition: % Inhibition [2]: 4.0%

SMILES: CCn1c(SC/C=C\c2ccccc2)nnc1-c1ccncc1 [compound 18558862]
- Cytotoxicity: Relative Cell Viability (% of Negative Control) [1]: 88.2 % of Negative Control
- Yeast Inhibition: % Inhibition [2]: 36.7%

SMILES: O=c1[nH]sc2ccccc12 [compound 17520]
- Cytotoxicity: Relative Cell Viability (% of Negative Control) [1]: 3.3 % of Negative Control
- Yeast Inhibition: % Inhibition [2]: 101.5%

SMILES: Cc1cccc(NC(=O)CC2SC(=O)N(c3ccc(F)cc3)C2=O)c1 (stereo not shown) [compound 16876071]
- Cytotoxicity: Relative Cell Viability (% of Negative Control) [1]: 86.9 % of Negative Control
- Yeast Inhibition: % Inhibition [2]: 58.1%

SMILES: Oc1ccc(C2(c3cccc(Cl)c3)CCCC2)cc1 [compound 767639]
- Cytotoxicity: Relative Cell Viability (% of Negative Control) [1]: 96.2 % of Negative Control
- Yeast Inhibition: % Inhibition [2]: 74.0%

SMILES: NNc1nc2cc3c(cc2s1)OCCO3 [compound 2771030]
- Cytotoxicity: Relative Cell Viability (% of Negative Control) [1]: 94.3 % of Negative Control
- Yeast Inhibition: % Inhibition [2]: 99.1%

SMILES: Cc1ccccc1N=c1scc(-c2ccc(F)cc2)n1CCO [compound 16955786]
- Cytotoxicity: Relative Cell Viability (% of Negative Control) [1]: 85.9 % of Negative Control
- Yeast Inhibition: % Inhibition [2]: 21.9%

SMILES: ClC(Cl)(c1nnnn1-c1ccccc1)c1nnnn1-c1ccccc1 [compound 3090522]
- Cytotoxicity: Relative Cell Viability (% of Negative Control) [1]: 90.6 % of Negative Control
- Yeast Inhibition: % Inhibition [2]: 87.7%

SMILES: Cc1cc(C(=O)NCCc2nc(C3CC3)cc(C(F)(F)F)n2)c(C)o1 [compound 71797038]
- Cytotoxicity: Relative Cell Viability (% of Negative Control) [1]: 94.6 % of Negative Control
- Yeast Inhibition: % Inhibition [2]: 47.0%

SMILES: O=C1C(NS(=O)(=O)c2ccccc2)=C/C(=N\S(=O)(=O)c2ccc(F)cc2)c2ccccc21 [compound 16805904]
- Cytotoxicity: Relative Cell Viability (% of Negative Control) [1]: 89.3 % of Negative Control
- Yeast Inhibition: % Inhibition [2]: -24.2%

SMILES: Cc1c(-n2c(-c3ccccc3)csc2=NC(=O)c2ccccc2)c(=O)n(-c2ccccc2)n1C [compound 1528700]
- Cytotoxicity: Relative Cell Viability (% of Negative Control) [1]: 93.1 % of Negative Control
- Yeast Inhibition: % Inhibition [2]: -8.8%

SMILES: O=S(=O)(Nc1ccc(Br)cc1F)c1ccc(Cl)c(C(F)(F)F)c1 [compound 1307471]
- Cytotoxicity: Relative Cell Viability (% of Negative Control) [1]: 98.7 % of Negative Control
- Yeast Inhibition: % Inhibition [2]: 59.9%

SMILES: Cc1ccc2cc(CCC#N)c(Cl)nc2c1 [compound 4736829]
- Cytotoxicity: Relative Cell Viability (% of Negative Control) [1]: 96.3 % of Negative Control
- Yeast Inhibition: % Inhibition [2]: 62.6%

SMILES: CC(C)(C)c1ccc(-c2csc(N)n2)cc1 [compound 673711]
- Cytotoxicity: Relative Cell Viability (% of Negative Control) [1]: 86.3 % of Negative Control
- Yeast Inhibition: % Inhibition [2]: 94.3%

SMILES: O=C(c1cc(-c2ccco2)on1)N1CCC(c2cccs2)CC1 [compound 71786870]
- Cytotoxicity: Relative Cell Viability (% of Negative Control) [1]: 90.1 % of Negative Control
- Yeast Inhibition: % Inhibition [2]: 39.7%

SMILES: COC(=O)c1ccc(Cn2c(S(C)(=O)=O)nc3ccccc32)cc1 [compound 18576765]
- Cytotoxicity: Relative Cell Viability (% of Negative Control) [1]: 88.5 % of Negative Control
- Yeast Inhibition: % Inhibition [2]: 3.8%

SMILES: CN(Cc1ccccc1)C(=O)COc1ccc(Br)cc1 [compound 4690650]
- Cytotoxicity: Relative Cell Viability (% of Negative Control) [1]: 66.8 % of Negative Control
- Yeast Inhibition: % Inhibition [2]: 25.9%

SMILES: Cn1c(=O)c(Nc2ccc(O)cc2)c2c3c(cccc31)C(=O)c1ccccc1-2 [compound 1263311]
- Cytotoxicity: Relative Cell Viability (% of Negative Control) [1]: 86.6 % of Negative Control
- Yeast Inhibition: % Inhibition [2]: -2.6%

SMILES: O=C(NCCc1ccccc1)c1n[nH]c2ccccc12 [compound 1505880]
- Cytotoxicity: Relative Cell Viability (% of Negative Control) [1]: 87.7 % of Negative Control
- Yeast Inhibition: % Inhibition [2]: 77.5%

SMILES: Fc1ccc(Nc2ccnc3ccc(Cl)cc23)c(F)c1 [compound 17016619]
- Cytotoxicity: Relative Cell Viability (% of Negative Control) [1]: 67.9 % of Negative Control
- Yeast Inhibition: % Inhibition [2]: 34.0%

SMILES: N#CSC1C=CS(=O)(=O)C1 (stereo not shown) [compound 99741]
- Cytotoxicity: Relative Cell Viability (% of Negative Control) [1]: 40.8 % of Negative Control
- Yeast Inhibition: % Inhibition [2]: 49.2%

SMILES: O=C1NC(=S)S/C1=C\c1ccc(OC(F)(F)F)cc1 [compound 16433415]
- Cytotoxicity: Relative Cell Viability (% of Negative Control) [1]: 79.7 % of Negative Control
- Yeast Inhibition: % Inhibition [2]: 82.9%

SMILES: C=C(C)Cn1c(C2CC(=O)N(c3ccccc3F)C2)nc2ccccc21 (stereo not shown) [compound 4754109]
- Cytotoxicity: Relative Cell Viability (% of Negative Control) [1]: 95.9 % of Negative Control
- Yeast Inhibition: % Inhibition [2]: 6.6%

SMILES: O=S(=O)(Nc1nc2c(Cl)cccc2s1)c1ccc(Cl)s1 [compound 16934160]
- Cytotoxicity: Relative Cell Viability (% of Negative Control) [1]: 75.3 % of Negative Control
- Yeast Inhibition: % Inhibition [2]: -6.1%

SMILES: Cc1ccc(C)c(N2C(=O)C=CC2=O)c1 [compound 709153]
- Cytotoxicity: Relative Cell Viability (% of Negative Control) [1]: 3.3 % of Negative Control
- Yeast Inhibition: % Inhibition [2]: 101.9%

SMILES: CCc1ccc2nc(N)sc2c1 [compound 773093]
- Cytotoxicity: Relative Cell Viability (% of Negative Control) [1]: 62.5 % of Negative Control
- Yeast Inhibition: % Inhibition [2]: 73.1%

SMILES: O=C(NCc1ccnc(-c2cccs2)c1)c1nc2ccccc2s1 [compound 91630328]
- Cytotoxicity: Relative Cell Viability (% of Negative Control) [1]: 93.3 % of Negative Control
- Yeast Inhibition: % Inhibition [2]: 3.0%
